Measurements: patent US6632794B1, “Insulin-like growth factor agonist molecules” (Genentech, Inc., priority 1997, dated 2003)

How the values were obtained:
[1] = biological target: T1, human Type 1 IGF receptor (Homo sapiens, UniProt P08069); assay: KIRA for phosphorylation of the human Type 1 receptor in MCF-7 cells; type: cell-based; settings: substance alone
T1 construct: host or cells: MCF-7

[2] = tested on: mouse 3T3 cells; assay: ^3H-thymidine incorporation into mouse 3T3 cells; type: cell-based
Method: Assay 2: Increase in Cell Number of Mouse 3T3 Cells
The activity of the IGF mutant was also measured in a bioassay for the activity of IGF-I on DNA synthesis and cell replication. In this assay mouse 3T3 cells are cultured, and the IGF mutant or IGF-I is added, followed by tritiated ^3H-thymidine. The amount of ^3H-thymidine incorporated is a measure of the replication of DNA and thus of cell replication.

[3] = biological target: T2, recombinant human (rh) IGFBP-1 (Homo sapiens, UniProt P08833); assay: ^125I-IGF-I competitive binding plate assay, IGFBP-1; settings: displacement of ^125I-IGF-I, FIG. 6
T2 sequence (P08833 26-259): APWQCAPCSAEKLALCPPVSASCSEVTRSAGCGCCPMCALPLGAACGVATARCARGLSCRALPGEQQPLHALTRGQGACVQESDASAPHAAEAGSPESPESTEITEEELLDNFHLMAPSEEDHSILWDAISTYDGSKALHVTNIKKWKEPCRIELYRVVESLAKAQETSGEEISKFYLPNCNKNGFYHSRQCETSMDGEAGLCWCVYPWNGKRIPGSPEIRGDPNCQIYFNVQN
Method: (§1) The mutant (Leu^24,Ala^31)hIGF-I was also tested for its ability to displace radio-labeled rhIGF-I off the IGFBPs in a competitive binding assay. This assay involves coating recombinant human (rh) IGFBP-1 or rhIGFBP-3 (160 ng/ml) onto 96-well plates overnight, blocking the plates for one hour with 0.5% BSA, adding rhIGF-I (250-0.08 ng/ml) or (Leu^24,Ala^31)hIGF-I for 1 hour, then adding 20,000 cpm of ^125I-IGF-I and incubating for 2 hours before washing and counting.
(§2) As an additional assay of peptide activity, several peptides were tested in an assay using ^125I-labeled IGF-I to measure inhibition of IGFBP binding, as described in Example 1 (Assay 3). Serial dilutions of peptide were added to an IGFBP-1 or an IGFBP-3 plate. Thereafter, ^125I-labeled IGF-I was added and the plates were incubated for 2 hours. The plates were then washed and counted to determine the amount of bound IGF-I.

[4] = biological target: IGFBP-3 (Homo sapiens, UniProt P17936); assay: ^125I-IGF-I competitive binding plate assay, IGFBP-3; settings: displacement of ^125I-IGF-I, FIG. 7
Method: as §1, §2

[5] = tested on: Zucker Diabetic Fatty rats; assay: IV bolus injection into diabetic rats, plasma glucose and insulin; type: in vivo, rat; settings: ZDF rats, 100 μg IV; for fall in blood glucose: after 10 minutes
Method: Eighteen 7-week-old male Zucker Diabetic Fatty rats (250-300 g, Genetic Models Inc.) were anesthetized using KETAMINE™ (62.5 mg/kg)/ROMPUN XYLAZINE™ (12.5 mg/kg) anesthesia. The right jugular vein was cannulated using a silicone rubber catheter and the rats were allowed to recover.
Two days after surgery the rats (5-6/group) were divided into three treatment groups and given IV via the jugular catheter 200 μl of:
Three days later, using the same rats the study was repeated. The rats that were dosed with IGF-I in the initial study received the IGF mutant in the repeat study and vice versa. Control animals received PBS in both experiments.
Two blood samples were collected from each rat via the jugular cannula prior to IV dosing with the hormones and then blood samples were collected after 10, 30, 60, and 120 minutes. The plasma was immediately separated by centrifugation. The glucose concentration was measured by a coupled hexokinase procedure using a Chem 1A serum chemistry analyzer. Insulin concentration was measured using a rat insulin RIA kit (Linco Research, Inc., St. Charles, Mo.).
Statistical comparisons for each time point were made by an ANOVA with a Duncan's Multiple Range test. A p value of <0.05 was considered as being statistically significant. All data are represented as the mean±SEM, with five or six animals per treatment group.

[6] = tested on: hypophysectomized rats; assay: Long-term administration to hypophysectomized rats; type: in vivo, rat; settings: one week
Excerpt: Young female SD rats were hypophysectomized at Taconic Laboratories and delivered several days later. The rats were then weighed frequently and those whose weight increased or decreased by more than 7 grams between 2 and 3 weeks following hypophysectomy were excluded from the study. Twenty-five rats were grouped randomly into five groups based on their body weight, and then randomly assigned to cages, with four rats per cage. The animals were allowed ad libitum access to food and water and housed in a room controlled for temperature and lighting.
1) Excipient pump, excipient injections;
2) (Leu^24,Ala^31)hIGF-I (10 μg/day, by SC minipump), excipient injections;
3) (Leu^24,Ala^31)hIGF-I (50 μg/day, by SC minipump), excipient injections;
4) Recombinant human GH (NUTROPIN™ brand from Genentech, Inc., 20 μg/day, by SC injection, two injections each of 10 μg/day), excipient minipump; or
5) (Leu^24,Ala^31)hIGF-I (50 μg/day, by SC minipump) plus recombinant human GH (20 μg/day, by SC injection, two injections each of 10 μg/day).
The rats were dosed for one week.
The mutant (Leu^24,Ala^31)hIGF-I was administered by osmotic minipumps (ALZET 2001™, Alza, Palo Alto, Calif.), which were placed in a subcutaneous tunnel in the dorsal neck region of the rats while they were anesthetized with KETAMINE™/XYLAZINE™ anesthesia. The pumps were filled with solutions so that the calculated daily dose was 50 μg or 10 μg, assuming that 24 μl of solution was delivered each day for one week.
Recombinant human GH was administered for one week by twice daily SC injections of 10 μg in 100 μl volume.
Body weights were measured daily in the morning. At the end of the week of dosing the animals were anesthetized via CO2 and exsanguinated via cardiac puncture. The remaining blood was allowed to clot and serum was separated and stored for further analysis.
Spleen, thymus, heart, liver, kidney, and perirenal fat were removed and weighed. The tibia was removed and fixed in neutral buffered formalin for histological measurement of epiphyseal plate width.
Serum chemistries were measured on an automated Chem I analyzer. Serum insulin concentration was measured using an RIA Kit supplied by Linco, Inc. To measure the IGF-I concentrations the serum was extracted using acid ethanol and the supernatant diluted to neutrality and assayed for IGF-I by RIA.
Tibia were sectioned longitudinally, stained with Toluene Blue, and mounted on microscope slides. The tibial epiphyseal plate width was measured using an ocular micrometer attached to a microscope.
Data were analyzed statistically by analysis of variance using one factor and two factor ANOVA.

[7] = biological target: T3, Type 1 IGF receptor (derived from placental membranes) (Homo sapiens, UniProt P08069); settings: Type 1 IGF receptor from placental membranes; Bayne et al.; read-out: half maximal inhibition of ligand binding; cited from earlier work
T3 construct: Type 1 IGF receptor (derived from placental membranes); host or cells: placental membranes
T3 sequence (P08069 31-736 limits assumed): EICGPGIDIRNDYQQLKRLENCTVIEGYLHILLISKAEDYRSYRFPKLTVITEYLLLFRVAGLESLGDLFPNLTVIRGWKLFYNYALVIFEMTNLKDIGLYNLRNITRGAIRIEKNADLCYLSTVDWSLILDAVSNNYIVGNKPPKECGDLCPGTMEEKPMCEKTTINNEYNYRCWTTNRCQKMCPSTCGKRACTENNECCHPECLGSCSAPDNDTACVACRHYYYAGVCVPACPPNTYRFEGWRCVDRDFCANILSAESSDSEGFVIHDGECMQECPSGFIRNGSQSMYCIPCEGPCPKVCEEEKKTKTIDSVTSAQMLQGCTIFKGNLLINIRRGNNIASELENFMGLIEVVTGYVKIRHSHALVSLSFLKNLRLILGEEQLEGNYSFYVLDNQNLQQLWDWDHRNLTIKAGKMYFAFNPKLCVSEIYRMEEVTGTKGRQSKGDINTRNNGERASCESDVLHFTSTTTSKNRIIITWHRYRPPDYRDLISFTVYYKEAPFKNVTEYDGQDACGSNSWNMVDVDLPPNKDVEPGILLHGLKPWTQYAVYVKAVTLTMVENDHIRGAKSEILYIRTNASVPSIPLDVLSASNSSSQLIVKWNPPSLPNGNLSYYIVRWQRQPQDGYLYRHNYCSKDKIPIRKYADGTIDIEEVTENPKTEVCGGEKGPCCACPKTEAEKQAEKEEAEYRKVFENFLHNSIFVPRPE
T3 sequence (P08069 741-1367 partner limits assumed): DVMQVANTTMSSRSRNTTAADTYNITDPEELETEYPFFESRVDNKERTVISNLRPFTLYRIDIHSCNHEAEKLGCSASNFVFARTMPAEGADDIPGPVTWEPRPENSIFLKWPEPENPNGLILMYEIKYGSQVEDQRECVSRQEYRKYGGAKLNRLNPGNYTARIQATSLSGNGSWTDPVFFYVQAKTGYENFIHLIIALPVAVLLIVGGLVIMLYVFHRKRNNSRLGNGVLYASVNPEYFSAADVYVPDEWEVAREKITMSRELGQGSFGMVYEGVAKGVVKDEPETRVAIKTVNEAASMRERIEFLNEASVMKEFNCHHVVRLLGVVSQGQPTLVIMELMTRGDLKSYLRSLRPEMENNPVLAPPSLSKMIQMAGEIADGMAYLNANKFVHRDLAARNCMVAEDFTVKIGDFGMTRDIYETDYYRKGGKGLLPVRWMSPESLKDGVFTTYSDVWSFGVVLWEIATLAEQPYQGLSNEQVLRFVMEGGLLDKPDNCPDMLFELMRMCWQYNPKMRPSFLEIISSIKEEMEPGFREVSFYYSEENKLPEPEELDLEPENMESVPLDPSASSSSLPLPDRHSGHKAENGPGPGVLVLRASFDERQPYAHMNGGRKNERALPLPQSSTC

Sequence of IGFBP-3 (P17936 28-291): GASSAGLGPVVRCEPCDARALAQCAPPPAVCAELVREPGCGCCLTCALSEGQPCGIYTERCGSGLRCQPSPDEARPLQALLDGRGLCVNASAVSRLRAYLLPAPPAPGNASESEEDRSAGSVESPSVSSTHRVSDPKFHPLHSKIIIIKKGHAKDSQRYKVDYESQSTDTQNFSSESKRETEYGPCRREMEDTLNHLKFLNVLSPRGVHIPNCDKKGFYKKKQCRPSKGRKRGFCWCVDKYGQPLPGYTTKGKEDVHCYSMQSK
T1 sequence (P08069 31-736 limits assumed): as the sequence (P08069 31-736 limits assumed) above
T1 sequence (P08069 741-1367 partner limits assumed): as the sequence (P08069 741-1367 partner limits assumed) above

| Substance | phosphorylation of the IGF-I receptor (KIRA) [1] | ^3H-thymidine incorporation [2] | binding affinity to recombinant IGFBP-1 [3] | binding affinity to recombinant IGFBP-3 [4] | plasma insulin response ([5]; Study One) | fall in blood glucose ([5]; Study One) | blood levels of endogenous rat IGF-I [6] | total IGF-I (rat and human) in blood ([6]; IGF agonist 10 μg) | body weight gain ([6]; IGF agonist 10 μg/day SC minipump) | total IGF-I (rat and human) in blood ([6]; IGF agonist 50 μg alone or with GH) | body weight gain ([6]; IGF agonist 50 μg/day SC minipump, hGH 20 μg/day SC, or both) | absolute thymus weight ([6]; IGF agonist 50 μg/day, hGH 20 μg/day, or both) | absolute and relative heart weight ([6]; IGF agonist 10 and 50 μg, hGH 20 μg/day, or combination) | absolute spleen weight ([6]; IGF mutant 10 and 50 μg/day, hGH 20 μg/day, or hGH plus 50 μg/day) | bone growth (tibial epiphyseal plate width) ([6]; low-dose mutant (10 μg/day)) | bone growth (tibial epiphyseal plate width) ([6]; mutant 50 μg/day alone or with rhGH) | IC50 [7] [nM] | plasma insulin response ([5]; Study Two) | fall in blood glucose ([5]; Study Two) |
| --- | --- | --- | --- | --- | --- | --- | --- | --- | --- | --- | --- | --- | --- | --- | --- | --- | --- | --- | --- |
| (Leu^24,Ala^31)hIGF-I | did not cause any change in receptor phosphorylation | no activity | affinity only several fold different from that of wild-type hIGF-I | affinity only several fold different from that of wild-type hIGF-I | suppressed blood insulin concentrations | smaller, but statistically significant | lower | not a rise in total IGF | mean weight gain that was numerically smaller than that of the control group | rise in total IGF-I | only a small amount of activity | increased | significant increase in the absolute and the relative size of the heart | increased by both doses | did not increase bone growth | significant increase in bone growth | 2000 | – | – |
| IGF-I: native-sequence recombinant human insulin-like growth factor-I (Genentech) | – | increased thymidine incorporation in a dose-related manner | – | – | large, and maintained fall in plasma insulin | immediate, moderate, and statistically significant | – | – | – | – | – | – | – | – | – | – | – | large, and maintained fall in plasma insulin | immediate, moderate, and statistically significant |
